# Data published in patent US12157730B2, “Heteroaryl derivative, method for producing same, and pharmaceutical composition comprising same as effective component” (VORONOI INC., priority 2019, dated 2024).
# Target: T1, Ba/F3 cell EGFR Exon20 ins NPH (Homo sapiens, UniProt P00533, INS773NPH)
# T1 construct: expressed in transfected cells; host or cells: Ba/F3
# Experiment: Ba/F3 cell proliferation suppression, EGFR Exon20 ins NPH
# Assay type: cell-based
# Details: GI50 class; Ba/F3 cell line with NPH inserted at Exon20 of EGFR; 72 hours
# How it was run: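 Seed 3000–5000 cells/well; after 24 h add compound (12 conc., 0.3 nM–50 um final); incubate 72 h; add CellTiter-Glo, 10 min room temperature; read luminescence; GI50 from % growth vs control, triplicate.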
row,Ba/F3 (NPH) Activity,SMILES
1,A (GI50 < 50 nM),"C=CC(=O)Nc1cc(Nc2cc(N3OCC[C@@H]3c3cccc(Cl)c3F)ncn2)c(OC)cc1N1CCC(N2CCO[C@@H](C)C2)CC1 [compound 356, N-(5-((6-((R)-3-(3-chloro-2-fluorophenyl)isoxazolidine-2-yl)pyrimidine-4-yl)amino)-4-methoxy-2-(4-((S)-2-methylmorpholino)piperidine-1-yl)phenyl) acrylamide]"
2,A (GI50 < 50 nM),"C=CC(=O)Nc1cc(Nc2cc(N3OCC[C@@H]3c3cc(F)ccc3F)ncn2)c(OC)cc1N1CCC(N2CC3CC2CN3C)CC1 (stereo partly drawn) [compound 877, N-(5-((6-((R)-3-(2,5-difluorophenyl)isoxazolidine-2-yl)pyrimidine-4-yl)amino)-4-methoxy-2-(4-(5-methyl-2,5-diazabicyclo [2.2.1]heptane-2-yl)piperidine-1-yl)phenyl)acrylamide]"
3,A (GI50 < 50 nM),"C=CC(=O)Nc1cc(Nc2cc(N3OCC[C@@H]3c3ccc(F)c(Cl)c3)ncn2)c(OC)cc1N1CC[C@@H](N(C)C)C1 [compound 756, N-(5-((6-((R)-3-(3-chloro-4-fluorophenyl)isoxazolidine-2-yl)pyrimidine-4-yl)amino)-2-((R)-3-(dimethylamino)pyrolidine-1-yl)-4-methoxyphenyl) acrylamide]"
4,A (GI50 < 50 nM),"C=CC(=O)Nc1cc(Nc2cc(N3OCC[C@@H]3c3cccc(C)c3F)ncn2)c(OC)cc1N1CCN(C2CC2)CC1 [compound 909, N-(2-(4-cyclopropylpiperazine-1-yl)-5-((6-((R)-3-(2-fluoro-3-methylphenyl)isoxazolidine-2-yl)pyrimidine-4-yl)amino)-4-methoxyphenyl) acrylamide]"
5,A (GI50 < 50 nM),"C=CC(=O)Nc1cc(Nc2cc(N3OCC[C@@H]3c3ccc(Cl)c(Cl)c3)ncn2)c(OC)cc1N1CCC(N2C[C@@H]3C[C@H]2CO3)CC1 [compound 688, N-(2-(4-((1S,4S)-2-oxa-5-azabicyclo[2.2.1]heptane-5-yl)piperidine-1-yl)-5-((6-((R)-3-(3,4-dichlorophenyl)isoxazolidine-2-yl)pyrimidine-4-yl)amino)-4-methoxyphenyl) acrylamide]"
6,A (GI50 < 50 nM),"C=CC(=O)Nc1cc(Nc2cc(N3OCC[C@@H]3Cc3ccccc3)ncn2)c(OC)cc1N1CCN(C2CCN(C)CC2)CC1 [compound 970, N-(5-((6-((S)-3-benzylisoxazolidine-2-yl)pyrimidine-4-yl)amino)-4-methoxy-2-(4-(1-methylpiperidine-4-yl)piperazine-1-yl)phenyl)acrylamide]"
7,A (GI50 < 50 nM),"C=CCN1CCN(C2CCN(c3cc(OC)c(Nc4cc(N5OCC[C@@H]5c5ccc(Cl)cc5F)ncn4)cc3NC(=O)C=C)CC2)CC1 [Example 211, N-(2-(4-(4-allylpiperazine-1-yl)piperidine-1-yl)-5-((6-((R)-3-(4-chloro-2-fluorophenyl)isoxazolidine-2-yl)pyrimidine-4-yl)amino)-4-methoxyphenyl) acrylamide]"
8,A (GI50 < 50 nM),"C=CC(=O)Nc1cc(Nc2cc(N3OCC[C@@H]3c3cc(F)cc(F)c3)ncn2)c(OC)cc1N1CCC(N2CCN(CCN(C)C)CC2)CC1 [compound 753, N-(5-((6-((R)-3-(3,5-difluorophenyl)isoxazolidine-2-yl)pyrimidine-4-yl)amino)-2-(4-(4-(2-(dimethylamino)ethyl)piperazine-1-yl)piperidine-1-yl)-4-methoxyphenyl) acrylamide]"
9,A (GI50 < 50 nM),"C=CCN1CCN(C2CCN(c3cc(OC)c(Nc4cc(N5OCC[C@@H]5c5cccc(Cl)c5F)ncn4)cc3NC(=O)C=C)CC2)CC1 [Example 90, N-(2-(4-(4-allylpiperazine-1-yl)piperidine-1-yl)-5-((6-(R-3-(3-chloro-2-fluorophenyl)isoxazolidine-2-yl)pyrimidine-4-yl)amino)-4-methoxyphenyl) acrylamide]"
10,A (GI50 < 50 nM),"C=CC(=O)Nc1cc(Nc2cc(N3OCC[C@@H]3c3ccc(F)cc3)ncn2)c(OC)cc1N1CCC(N2CC[C@H](N(C)C)C2)CC1 [compound 811, N-(2-(4-((S)-3-(dimethylamino)pyrolidine-1-yl)piperidine-1-yl)-5-((6-((R)-3-(4-fluorophenyl)isoxazolidine-2-yl)pyrimidine-4-yl)amino)-4-methoxyphenyl) acrylamide]"
11,A (GI50 < 50 nM),"C=CC(=O)Nc1cc(Nc2cc(N3OCC[C@@H]3c3cccc(Cl)c3Cl)ncn2)c(OC)cc1N1CCC(N2C[C@@H]3C[C@H]2CN3CC)CC1 [compound 607, N-(5-((6-((R)-3-(2,3-dichlorophenyl)isoxazolidine-2-yl)pyrimidine-4-yl)amino)-2-(4-((1S,4S)-5-ethyl-2,5-diazabicyclo[2.2.1]heptane-2-yl)piperidine-1-yl)-4-methoxyphenyl) acrylamide]"
12,A (GI50 < 50 nM),"C=CC(=O)Nc1cc(Nc2cc(N3OCC[C@@H]3Cc3cccc(Cl)c3Cl)ncn2)c(OC)cc1N1CCC(N2CCOCC2)CC1 [compound 979, N-(5-((6-((S)-3-(2,3-dichlorobenzyl)isoxazolidine-2-yl)pyrimidine-4-yl)amino)-4-methoxy-2-(4-morpholinopiperidine-1-yl)phenyl)acrylamide]"

# Further lines, the compound ahead of its results:
row,SMILES,Ba/F3 (NPH) Activity
1,"C=CC(=O)Nc1cc(Nc2cc(N3OCC[C@@H]3c3ccc(F)c(F)c3)ncn2)c(OC)cc1N1CCC(N2CCC(N(C)C)CC2)CC1 [compound 546, N-(5-((6-((R)-3-(3,4-difluorophenyl)isoxazolidine-2-yl)pyrimidine-4-yl)amino)-2-(4-(dimethylamino)-[1,4'-bipiperidine]-1'-yl)-4-methoxyphenyl) acrylamide]",A (GI50 < 50 nM)
2,"C=CC(=O)Nc1cc(Nc2cc(N3OCC[C@@H]3Cc3cccc(Cl)c3Cl)ncn2)c(OC)cc1N1CCC(N2C[C@@H]3C[C@H]2CO3)CC1 [compound 1012, N-(2-(4-((1S,4S)-2-oxa-5-azabicyclo [2.2.1]heptane-5-yl)piperidine-1-yl)-5-((6-((S)-3-(2,3-dichlorobenzyl)isoxazolidine-2-yl)pyrimidine-4-yl)amino)-4-methoxyphenyl) acrylamide]",A (GI50 < 50 nM)
3,"C=CC(=O)Nc1cc(Nc2cc(N3OCC[C@@H]3Cc3cccc(F)c3)ncn2)c(OC)cc1N1CCN(C)CC1 [compound 991, N-(5-((6-((S)-3-(3-fluorobenzyl)isoxazolidine-2-yl)pyrimidine-4-yl)amino)-4-methoxy-2-(4-methylpiperazine-1-yl)phenyl)acrylamide]",A (GI50 < 50 nM)
4,"C=CC(=O)Nc1cc(Nc2cc(N3OCC[C@@H]3c3cc(F)cc(F)c3)ncn2)c(OC)cc1N1CCC(N2C[C@@H]3C[C@H]2CN3C)CC1 [Example 260, N-(5-((6-((R)-3-(3,5-difluorophenyl)isoxazolidine-2-yl)pyrimidine-4-yl)amino)-4-methoxy-2-(4-((1S,4S)-5-methyl-2,5-diazabicyclo[2.2.1]heptane-2-yl)piperidine-1-yl)phenyl)acrylamide]",A (GI50 < 50 nM)
5,"C=CC(=O)Nc1cc(Nc2cc(N3OCC[C@@H]3Cc3cccc(Cl)c3Cl)ncn2)c(OC)cc1N1CCC(N2C[C@H]3C[C@@H]2CO3)CC1 [compound 1014, N-(2-(4-((1R,4R)-2-oxa-5-azabicyclo [2.2.1]heptane-5-yl)piperidine-1-yl)-5-((6-((S)-3-(2,3-dichlorobenzyl)isoxazolidine-2-yl)pyrimidine-4-yl)amino)-4-methoxyphenyl) acrylamide]",A (GI50 < 50 nM)
6,"C=CC(=O)Nc1cc(Nc2cc(N3OCC[C@@H]3c3ccc(Cl)c(F)c3)ncn2)c(OC)cc1N1CCC(N2CCN(C3CCC3)CC2)CC1 [Example 71, N-(5-((6-((R)-3-(4-chloro-3-fluorophenyl)isoxazolidine-2-yl)pyrimidine-4-yl)amino)-2-(4-(4-cyclobutylpiperazine-1-yl)piperidine-1-yl)-4-methoxyphenyl) acrylamide]",A (GI50 < 50 nM)
7,"C=CC(=O)Nc1cc(Nc2cc(N3OCC[C@H]3c3c(F)cccc3F)ncn2)c(OC)cc1N1CCC(N2CCOCC2)CC1 [compound 897, N-(5-((6-((S)-3-(2,6-difluorophenyl)isoxazolidine-2-yl)pyrimidine-4-yl)amino)-4-methoxy-2-(4-morpholinopiperidine-1-yl)phenyl)acrylamide]",C (500 nM ≤ GI50 < 5000 nM)
8,"C=CC(=O)Nc1cc(Nc2cc(N3OCC[C@@H]3c3cccc(Cl)c3)ncn2)c(OC)cc1N1CCC(N2CCN(C(C)C)CC2)CC1 [compound 461, N-(5-((6-((R)-3-(3-chlorophenyl)isoxazolidine-2-yl)pyrimidine-4-yl)amino)-2-(4-(4-isopropylpiperazine-1-yl)piperidine-1-yl)-4-methoxyphenyl) acrylamide]",A (GI50 < 50 nM)
9,"C=CC(=O)Nc1cc(Nc2cc(N3OCC[C@@H]3c3cccc(Cl)c3)ncn2)c(OC)cc1N1CCN(C)CC1 [compound 360, N-(5-((6-((R)-3-(3-chlorophenyl)isoxazolidine-2-yl)pyrimidine-4-yl)amino)-4-methoxy-2-(4-methylpiperazine-1-yl)phenyl)acrylamide]",A (GI50 < 50 nM)
10,"C=CC(=O)Nc1cc(Nc2cc(N3OCC[C@@H]3c3cc(F)cc(Cl)c3)ncn2)c(OC)cc1N1CCC(N2CCN(C3CCC3)CC2)CC1 [Example 189, N-(5-((6-((R)-3-(3-chloro-5-fluorophenyl)isoxazolidine-2-yl)pyrimidine-4-yl)amino)-2-(4-(4-cyclobutylpiperazine-1-yl)piperidine-1-yl)-4-methoxyphenyl) acrylamide]",A (GI50 < 50 nM)
11,"C=CC(=O)Nc1cc(Nc2cc(N3OCC[C@@H]3c3cccc(C#N)c3)ncn2)c(OC)cc1N(C)CCN(C)C [compound 392, N-(5-((6-((R)-3-(3-cyanophenyl)isoxazolidine-2-yl)pyrimidine-4-yl)amino)-2-((2-(dimethylamino)ethyl)(methyl)amino)-4-methoxyphenyl) acrylamide]",A (GI50 < 50 nM)
